Data on one molecule can be found in patent US20220288081A1, “TREATMENT OF EXCITOTOXICITY-RELATED CONDITIONS” (priority 2019, published 2022).

Holding throughout (type): in vivo
Experiment [1] relates to C57Bl/6 mice. The experiment can be described thus: Pentylenetetrazole (PTZ)-induced excitotoxic seizure model. To be noted: for mean seizure severity (score 0 to 5): n=9. The protocol:
(§1) FIG. 3. LIMK1 inhibition reduced susceptibility to induced seizures and mitigated neuronal network hypersynchronisity in mice. (A) Excitotoxic seizures were induced by acute intraperitoneal injection of 50 mg/kg body weight pentylenetetrazole (PTZ) followed by timing and scoring (0=no seizures to 7=terminal status epilepticus) of seizure development. Mice were treated with vehicle or 10 mg/kg body weight LIMK1 inhibitor LIMKi intraperitoneally 30 minutes prior to seizure induction. […] (B) Compound hippocampal electroencephalography (EEG) recordings over 4 hours in non-transgenic (wt) and APP transgenic (APP23) mice including 2 hours before (Pre) and 2 hours after (Post) LIMKi or vehicle administration. Time of intraperitoneal LIMKi and vehicle administration is indicated with an arrow. […] Frequent spikes pre and post vehicle administration in APP23 mice. In contrast, LIMKi injection mitigates spike activity in APP23 post injection. […] From left to right: non-Tg+vehicle; non-Tg+LIMKi; APP23+vehicle; APP23+LIMKi.
Seizure model. Excitotoxic seizure were induced in mice by intraperitoneal injection of 50 mg/kg body weight pentylenetetrazole followed by observation in a square area (40×40 cm). Scoring of seizures was done as previously described (Ittner et al., 2010, Cell 142, 387-397). For LIMKi-treated mice, scoring was adjusted by combining the severe seizure scores 5 to 7 into a single score of 5. For both scales, minor to moderate seizures are reflected by scores <5.
(§2) Next, the inventors tested the effects of acute Compound 1 administration on neuronal network activity in APP23 mice. […] Furthermore, CFC 1 hour after Compound 1 administration was re-established (data not shown). […] Thus, inhibition of LIMK1 with Compound 1 conferred protection from Aβ toxicity in neurons and from excitotoxicity in vivo. Furthermore, treatment of APP23 with Compound 1 corrected network aberrations including CFC.

The test system of experiment [2] is APP23 mice. Briefly: Telemetric hippocampal EEG recordings (spike analysis, cross frequency coupling) in APP23 mice. To be noted: for amplitude phase in EEG recordings / modulation index of cross frequency coupling: vs wt controls; for spike frequency / hypersynchronous discharges in EEG: intraperitoneal, 2 hours pre vs 2 hours post administration, and vs vehicle. The protocol:
as §1
Mice. APP23 express human Swedish mutant (K595N/M596L) amyloid-β precursor protein (APP) in neurons (Sturchler-Pierrat et al., 1997, Proc Natl Acad Sci USA 94, 13287-13292). Limk1^−/− mice have been reported previously (Meng et al., 2002, Neuron 35, 121-133). All mice were on a pure C57Bl/6 background. Mice were housed in standard individually ventilated cages on a 12 hour light/dark cycle with access to standard chow and water ad libitum. Mice of both genders were used unless otherwise indicated. Investigators were blinded to genotypes until after completion of data analysis. All experiments were approved by the Animal Ethics Committee of Macquarie University.
Electroencephalography. Hippocampal EEG recordings were done with implanted telemetric electrodes (D.S.I.) as previously described (Ittner et al., 2014, Acta neuropathologica communications 2, 149). All recordings were done with mice individually housed in their home cages one week after implantation of transmitters. Compound administration was done intraperitoneally during transient restraining of mice. Vehicle for the LIMK1 inhibitor LIMKi contained hydroxypropyl methylcellulose 606 (HPMC 606) with polyvinylpyrrolidone k17 (PVP k17) and tween 80 in a proportion of 0.5%, 0.5%, 0.1%, respectively. Spike analysis was done with the Neuroscore software module (D.S.I.) as previously described (Ittner et al., 2016, Science 354, 904-908). Cross frequency coupling of theta and gamma waves was performed as previously described (Ittner et al., 2016, Science 354, 904-908).
as §2

The subject of experiment [3] is non-transgenic (wt) mice. Briefly: Telemetric hippocampal EEG recordings in non-transgenic (wt) mice. The following applies: pre and post intraperitoneal injection. The protocol: as §1
Electroencephalography. Hippocampal EEG recordings were done with implanted telemetric electrodes (D.S.I.) as previously described (Ittner et al., 2014, Acta neuropathologica communications 2, 149). All recordings were done with mice individually housed in their home cages one week after implantation of transmitters. […]

Where [4] appears, read: 10 mg/kg intraperitoneally 30 minutes prior to 50 mg/kg PTZ i.p., vs vehicle controls.
[5] abbreviates: 1 hour after administration, n=8.
The mark [6] stands for this setting: 1 hour after administration, n=8, listed as LIMKi.

On to `Cc1c[nH]c2ncnc(N3CCN(/C(=N\C#N)Nc4cccc(Br)c4)[C@@H](C)C3)c12` [Compound 1], for which, in experiment [1] (10 mg/kg 30 minutes prior to PTZ, C57Bl/6 mice), the “latency to develop severe seizures” value is “increased the latency to develop severe seizures”. In experiment [1] (setting [4]), the “development of severe seizure stages over time (score=5)” value is reported as “Only vehicle-treated mice develop severe seizure stages over time”. Further, the “latency to develop lower grade seizures (score <5)” value in experiment [1] (setting [4]) is listed as “Delayed latency to develop lower grade seizures”. Moreover, the “mean seizure severity (score 0 to 5)” value in experiment [1] (setting [4]) is given as “significantly reduced mean seizure severity”; in experiment [1] (10 mg/kg intraperitoneally 30 minutes prior to 50 mg/kg PTZ i.p., vs vehicle controls, listed as LIMKi) it was “Significantly reduced seizure severity”. The “cross frequency coupling (CFC)” value in experiment [2] (1 hour after administration, data not shown) is reported as “re-established”. The “amplitude phase in EEG recordings” value in experiment [2] (setting [5]) is “normalized”; in experiment [2] (setting [6]) it was “corrected 1 hour after LIMKi delivery and no longer different from wt controls”. For the same molecule, the “modulation index of cross frequency coupling” value in experiment [2] (setting [5]) is “normalized”; in experiment [2] (setting [6]), “corrected 1 hours after LIMKi administration and no longer different from wt controls”. The “spike frequency / hypersynchronous discharges in EEG” value in experiment [2] (n=8) was “hypersynchronicity significantly decreased”; in experiment [2] (n=8, listed as LIMKi), “significantly reduced spike frequency”. Also, the “spike activity in EEG” value in experiment [3] is reported as “No overt spike activity”.
